Data as given in patent US20250051277A1, “DELIVERY OF THERAPEUTIC ALKALOID COMPOUNDS” (Sensorium Therapeutics, Inc., priority 2021, published 2025).
Where two headings read alike, the source gives them in different places.

How the values were obtained:
[1] = Hydrolysis Assay of Example A1 (conversion by LCMS); assay type: physicochemical; settings: for Conversion (%) / Notes (hydrolysis): 0.5 mM, 0-24 h
[2] = Pharmacokinetics of 043 and 001 in mice after oral 043 (75 mg/kg); assay type: in vivo, male C57BL/6 mice; settings: analyte = label, single oral administration of 043, 75 mg/kg, male C57BL/6 mice
Protocol: Total twelve male mice were used in this study. […] The formulation vehicle used was normal saline.
The plasma and brain concentration-time data of 043 and 001 was used for the pharmacokinetic analysis.
The extraction procedure for plasma/brain samples and the spiked plasma/brain calibration standards were identical:
A 25 μL of study sample plasma/brain (dilution applied to some samples) or spiked plasma calibration standard was added to individual pre-labeled micro-centrifuge tubes followed by 100 μL of internal standard prepared in acetonitrile (Glipizide-500 ng/mL) was added except for blank, where 100 μL of acetonitrile was added. Samples were vortexed for 5 minutes. Samples were centrifuged for 10 minutes at a speed of 4000 rpm at 4° C. Following centrifugation, 100 μL of clear supernatant was transferred in 96 well plates and analyzed using LC-MS/MS.

[3] = Protocol: Male C57/BL6 mice were used to evaluate each compound, with n=3 mice/time point.
Animals were administered through intravenous route with solution formulation at 2 mg/kg dose. […] Following blood collection, immediately, animals were sacrificed, and vena-cava was cut open and blood was drained. […] Brain samples were collected from set of three mice at each time point. […] Brain samples were homogenized using 2 volumes of ice-cold PBS (pH-7.4) of brain weight. […] Concentrations of compound (or compound and metabolite) in mouse plasma and brain samples were determined by fit for purpose LC-MS/MS method.

[4] = Oral dose pharmacokinetic study in mice (10 mg/kg); assay type: in vivo, male C57BL/6 mice
From the text: The formulation vehicle used was normal saline.

[5] = 2 mg/kg iv of labelled compound, rat
Protocol: Brain samples were homogenized with PBS (W/V, 1:3). Plasma/brain samples were mixed with acetonitrile containing internal standard. The samples were vortexed then centrifuged at 4 degrees Celsius for 15 minutes. The supernatant was diluted with water (1:2 V/V) and analyzed by LC/MS/MS for quantitative analysis. […] Area under the curve (AUC) was calculated and divided by dose to account for molecular weight difference of prodrug and metabolite (AUC/D).

[6] = Plasma Stability Assay of Example A4, rat plasma; settings: 37° C., 10 μM
[7] = Plasma Stability Assay of Example A3, mouse plasma; settings: 5 μM, 37° C., % of prodrug compound remaining
[8] = Plasma Stability Assay of Example A3, human plasma; settings: 5 μM, 37° C., % of prodrug compound remaining
[9] = Plasma Stability Assay of Example A4, human plasma; settings: 37° C., 10 μM
[10] = in vivo; cited from earlier work
[11] = 2 mg/kg iv of labelled compound, mice
[12] = 10 mg/kg po of labelled compound, mice

COc1ccc([C@@]23CCC(=O)C[C@@H]2N(C)CC3)cc1OC [Compound 001, mesembrine, reference compound]
hydrolysis in the Hydrolysis Assay ([1]; pH 2.0 in 0.01 M HCl to pH 7.4 in 20 mM PBS, 25° C. to 40° C.): did not further hydrolyze | Conversion (%) ([1]; pH = 2.0, 25° C., 0.01M HCl): 0% | Notes (hydrolysis) ([1]; pH = 2.0, 25° C., 0.01M HCl): Stable | Conversion (%) ([1]; pH = 2.0, 40° C., 0.01M HCl): 0% | Notes (hydrolysis) ([1]; pH = 2.0, 40° C., 0.01M HCl): Stable | Conversion (%) ([1]; pH = 7.4, 25° C., PBS (20 mM)): 0% | Notes (hydrolysis) ([1]; pH = 7.4, 25° C., PBS (20 mM)): Stable | Conversion (%) ([1]; pH = 7.4, 40° C., PBS (20 mM)): 0% | Notes (hydrolysis) ([1]; pH = 7.4, 40° C., PBS (20 mM)): Stable | Brain concentrations quantifiable up to [2]: 4 h | brain exposure-Kp [2]: 2.55 | AUClast ([2]; brain): 498.04 ng·h/mL | Cmax ([2]; brain): 602.12 ng/mL | Tmax ([2]; brain): 30 min | AUClast ([2]; plasma): 195.38 ng·h/mL | Cmax ([2]; plasma): 230.83 ng/mL | Tmax ([2]; plasma): 30 min | quantifiable levels of 001 in brain up to [3, 11]: 60 min | quantifiable levels of 001 in plasma up to [3, 11]: 30 min | Plasma levels of 001 ([3]; at 60, 120, 180 min, 2 mg/kg iv of 001, mice): not detectable | Brain levels of 001 ([3]; at 120, 180 min, 2 mg/kg iv of 001, mice): not detectable | 001 quantifiable in brain up to [4, 12]: 60 min | 001 quantifiable in plasma up to [4, 12]: 2 h | Brain levels of 001 ([4]; at 90, 120, 180 min, 10 mg/kg po of 001, mice): not detectable | Plasma levels of 001 ([4]; at 180 min, 10 mg/kg po of 001, mice): not detectable | bioavailability (% F) ([4]; mice, oral 10 mg/kg): < 10% | 001 brain levels quantifiable up to [5]: 2 h | Compound 001 (%) (metabolite mesembrine), Rat Plasma ([6]; time 0.0 min): 100.0% | Compound 001 (%) (metabolite mesembrine), Rat Plasma ([6]; time 10 min): >99% | Compound 001 (%) (metabolite mesembrine), Rat Plasma ([6]; time 30 min): >99% | Compound 001 (%) (metabolite mesembrine), Rat Plasma ([6]; time 60 min): 97.3% | Compound 001 (%) (metabolite mesembrine), Rat Plasma ([6]; time 120 min): >99% | Compound 001 (%) (metabolite mesembrine), Rat Plasma ([6]; time 240 min): 98.3% | Mouse Plasma Prodrug (%) ([7]; 0 min): 100.0% | Mouse Plasma Prodrug (%) ([7]; 15 min): >99% | Mouse Plasma Prodrug (%) ([7]; 30 min): 97.8% | Mouse Plasma Prodrug (%) ([7]; 60 min): >99% | Mouse Plasma Prodrug (%) ([7]; 120 min): >99% | Mouse Plasma Prodrug (%) ([7]; 240 min): >99% | Human Plasma Prodrug (%) ([8]; 0 min): 100.0% | Human Plasma Prodrug (%) ([8]; 15 min): >99% | Human Plasma Prodrug (%) ([8]; 30 min): >99% | Human Plasma Prodrug (%) ([8]; 60 min): >99% | Human Plasma Prodrug (%) ([8]; 120 min): >99% | Human Plasma Prodrug (%) ([8]; 240 min): >99% | Compound 001 (%) (metabolite mesembrine), Human Plasma ([9]; time 0.0 min): 100.0% | Compound 001 (%) (metabolite mesembrine), Human Plasma ([9]; time 10 min): >99% | Compound 001 (%) (metabolite mesembrine), Human Plasma ([9]; time 30 min): >99% | Compound 001 (%) (metabolite mesembrine), Human Plasma ([9]; time 60 min): >99% | Compound 001 (%) (metabolite mesembrine), Human Plasma ([9]; time 120 min): >99% | Compound 001 (%) (metabolite mesembrine), Human Plasma ([9]; time 240 min): >99%

(−) mesembrine
half-life in plasma [10]: less than 2 hours
